Reference: US20260028404A1 (UNIVERSITY OF KANSAS, priority 2022, published 2026)
Entries after “also recorded” stand apart in the source; their conditions may differ.

Columns and labels:
[1] = tested on: 28 immune related proteins; experiment: GeoMx digital spatial profiling, biopsy vs resected treated tumor; format: in vivo, human
Protocol: GeoMx DSP analysis: Digital spatial profiling of pre-and post-treatment formalin-fixed, paraffin embedded (FFPE) tumor tissue was performed using the GeoMx DSP platform (NanoString Technologies) to measure levels of 28 protein markers associated with immune oncology. Specifically, the immune cell profiling core protein module and IO drug target protein module were used for this analysis following manufacturer's protocol for staining, hybridization, collection, detection (nCounter based-counting), and data normalization. Briefly, this entailed an initial pathologist review of hematoxylin and eosin-stained sections by a pathologist at KUMC to verify presence of tumor cells within the FFPE block. Next, a 5 μm-think unstained FFPE slide was subjected to a cocktail of primary antibodies conjugated with unique DNA-oligonucleotide moieties attached with a light sensitive photocleavable linker. Within this cocktail were also anti-pan-cytokeratin (included with GeoMx assay and used for the basal cell carcinoma and squamous cell carcinoma samples) or anti-MART-1 (Novus Biologicals, catalog #NBP2-46603AF647 used for targeting epithelium in melanoma samples), CD45 (for targeting immune cells) and Syto-13 (used as a nuclear stain). These fluorescently labeled antibodies were used for imaging and identifying the regions of interest (ROIs) followed by segmentation into tumor cells and immune cells for independent collection from each ROI into individual wells of a 96-well plate followed by digital quantification using the NanoString nCounter platform. The GeoMx DSP Analysis Suite version 2.4 was used to perform data QC, normalization, and statistical analysis following guidance by NanoString field scientists. For analysis of similar cell populations (i.e., expression levels only in epithelial cells or only in immune cells), the geometric mean of housekeeping proteins GAPDH, Histone H3, and S6 was used for normalization. When different cell populations were being analyzed (i.e., expression levels in epithelial versus immune cells), the geometric mean of the signal-to-noise ratio of negative control mouse and rabbit isotype IgG controls was used for background correction prior.
The GeoMx Digital Spatial Profiling (DSP) platform (NanoString) was used to profile 28 immune related proteins. This platform allows users to perform nondestructive interrogation of formalin-fixed paraffin embedded (FFPE) tissue (among other tissue types) for multiplexed spatial profiling of immunooncology-related proteins to assess tumor cells and their microenvironment. The GeoMx platform uses a cocktail of antibodies conjugated to photocleavable DNA-barcoded oligos to provide high multiplex capacity and the use of guided ultraviolet light exposure (by way of adjustable 1 million micromirrors) provides a high degree of flexibility in selection of regions of interest for study. DSP technology and the GeoMx platform have been extensively reviewed.
Using the GeoMx DSP platform, we performed in situ digital spatial profiling of tissue specimens collected from the COPAX trial patients before and after treatment to measure levels of 28 proteins (Immune cell profiling panel, and the IO drug target panel). After a pathologist review of H&E-stained tissue specimens to assess presence of tumor cells, GeoMx DSP analysis was performed on a serial unstained slide for each sample. Regions of interest (ROIs) which encompassed both tumor and immune cells were selected either by free-hand drawing using the polygon tool or using a standard circle. The ROIs were further segmented into tumor cells and immune cells based on the staining pattern of morphology markers (pan-cytokeratin and CD45 for the carcinomas and MARTI and CD45 for the melanomas). Following segmentation, the DNA bar codes corresponding to each target in the antibody cocktail were collected by the instrument. […]

EO771 tumors = experiment: EO771 triple negative breast cancer model, GA dose escalation with anti-PD1; parameters: species or system C57BL/6 mice; details: mouse, in vivo
Protocol: GA was evaluated for its intratumoral efficacy and dose dependency in tumors alone and in combination with systemic anti-PD1 in the murine Triple negative breast cancer model EO771. EO771 cells were implanted to C57BL/6 mice on Day 0. In this study, two doses of intraperitoneal anti-PD1 (100 μg or 250 μg) and three doses of intratumoral GA (300 μg, 1 mg, 2 mg) were evaluated. Primary tumors were measured by caliper measurement. Tumor volumes were calculated according to the formula, tumor volume (mm^3)=0.52×(width)^2 ×length, where length is the longer of two perpendicular dimensions.

Clone M3 tumors = experiment: Cloudman M3 (Clone M3) melanoma model; format: in vivo, DBA/2N mice; details: through 21 days; 2 mg GA IT x5, 10 mg/kg antibody IP x3
Protocol: Mice were randomized into treatment groups when tumors reached mean volumes of 50-80 mm^3 at Day 7.
Treatment groups consisted of vehicle control (n=7, 4% mannitol IT plus 10 mg/kg isotype control antibody IP), anti-PD1 alone (n=5, 4% mannitol IT plus 10 mg/kg anti-PD1 IP), GA alone (2 mg GA IT plus 10 mg/kg isotype control IP), or GA+anti-PD1 combination (n=5, 2 mg GA IT plus 10 mg/kg anti-PD1 IP). Intratumoral treatments were administered 5 times at a frequency of 3 times per week and 50 μL per injection beginning on Day 7. Intraperitoneal antibody was given beginning on Day 7 as well, but for a total of 3 times on a frequency of every 3-4 days.
Primary tumors were measured by caliper measurement. Tumor sizes were
calculated according to the formula (W^2×L)/2. Animals were euthanized when any tumor diameter dimension exceeded 1.8 cm.

EAE = details: mice; cited from earlier work
[2] = mouse, in vivo; cited from earlier work
[3] = in vivo; cited from earlier work
[4] = in vivo; cited from earlier work; remark: listed apart in the source

## Glatiramer acetate [GA]
[1]; Table B patients
  patients with CD56 upregulated: 2 patients
  patients with PD-L1 upregulated: 3 patients
[1]; patient BCCa-Left Nasal Ala, 2 Copaxone injections
  Gene expression (upregulated post-treatment): CD56, CD11c,
[1]; patient BCCa-Right Post. Neck, 2 Copaxone injections
  Gene expression (upregulated post-treatment): VISTA, GITR
[1]; patient SCCa-Right Cheek, 1 Copaxone injection
  Gene expression (upregulated post-treatment): CD45, CD3,; also recorded: OX401, GITR,
[1]; patients, biopsy vs resected treated tumor, listed as Copaxone®
  immune marker expression after treatment (GeoMx, overall): immunostimulatory effect at the intratumoral injection site; also recorded: Several patients exhibited upregulated expression of genes that encode targets for checkpoint inhibitor therapy; also recorded: upregulated markers of stimulatory immune activity; also recorded: Immune markers including hallmarks of T cell recruitment and activation were upregulated in tumors
EO771 tumors
  systemic cytokines associated with cytokine release syndrome: does not induce systemic cytokines typically associated with cytokine release syndrome
Clone M3 tumors
  mouse survival (not exceeding 1750 mm^3 tumor volume or 1.8 cm diameter): three of five
EAE
  effect on EAE: suppress EAE
[2]
  aggregate formation near the injection site: formed spherical aggregates near the injection site
[3]
  localization after injection: primarily localized at the site of injection
[4]
  systemic exposure: negligible systemic exposure
